Test system: fibronectin
Experiment: Real-time RT-PCR in PMCs from dialysed rats
Format: in vivo, rat
Conditions: peritoneal cells from rats dialysed four weeks, aliskiren 0.1 or 1 mg/Kg, FIG. 17
Procedure: The rats were exposed daily for four weeks to carrier (saline serum), 1.5% PDF, 2.3% PDF or 4.5% PDF supplemented by carrier, 0.1 mg/Kg aliskiren or 1 mg/Kg aliskiren. The data is expressed as mean±SEM, n=6 rats per group.* p<0.05, compared to the group treated with carrier in the absence of aliskiren (carrier). # p<0.05, compared to their respective groups treated with PDFs in the absence of aliskiren. […]
At the end of the experimental period (four weeks), 30 ml of a commercial PDF with 2.3% glucose (Fresenius Medical Car, Bad Homburg, Germany) was administered intraperitoneally using a 22G needle. […] Their body weight was measured at the start and end of the experimental period. […]
The blood and dialysate samples were centrifuged and stored at −20° C. The concentrations of creatinine and glucose in the serum and dialysate were measured using enzymatic methods. The peritoneal transport of solutes was calculated, on one hand, as the glucose concentration in the dialysate 2 hours after the PET relative to the initial glucose concentration in the PDF (D2/D0 glucose) and, on the other, as the dialysate/plasma creatinine concentration ratio (D2/P2 creatinine) 2 h after the PET. […]
The RNA expression was evaluated by real-time RT-PCR in PMCs. […] RNA quality and concentration was evaluated by spectrophotometry (Infinite 200, Tecan, Salzburg, Austria) using 1 μl of the RNA sample. […]

## COCCCOc1cc(C[C@@H](C[C@H](N)[C@@H](O)C[C@H](C(=O)NCC(C)(C)C(N)=O)C(C)C)C(C)C)ccc1OC [aliskiren]
  RNAm expression of fibronectin: increased

— US20130065964A1, “PERITONEAL DIALYSIS SOLUTION” (UNIVERSIDAD DE CASTILLA LA MANCHA, priority 2010, published 2013)
